The record followed here is ChEMBL document CHEMBL1201862, “PubChem BioAssay data set” (2004).

The source made the active and inactive calls.

A short description of assay [1]: inhibitors of firefly luciferase expression or activity, dose response, H4 neuroglioma cells, luminescence (AID 1990). It is filed as functional, cell-based.
The subject of assay [2] is Streptococcus sp. 'group A'. The assay is described as follows: growth inhibition of control SK(-) GAS strain, dose response, counter-screen for streptokinase expression inhibitor project, luminescence, kanamycin, BacTiterGlo, confirmation (AID 1900). It is filed as functional, organism-based. In general terms: A counterscreen serves to expose hits that act by an unwanted route or on another target.

The next assay concerns HeLa. The assay is described as follows: Cytotoxicity counterscreen assay for transcriptional activators of heat shock protein 70 (Hsp70). [Related pubchem assays: 1203, 1252 ]. The conditions noted are these: Homo sapiens. The class given is functional.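 Note: cells exposed to compound for 16 hours before readout.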
A short description of assay [3]: inhibitors of SNCA 5'UTR-driven reporter translation, confirmation, H4 neuroglioma cells, luminescence (AID 1988). The class given is functional, cell-based.
The next assay deals with BJ. The assay is described as follows: cells. It is filed as functional, cell-based. The conditions noted are these: Homo sapiens.
Assay [4] deals with 5'-AMP-activated protein kinase catalytic subunit alpha-1 (Homo sapiens, UniProt Q13131). The class given is functional.
The target in assay [5] is Testis-specific serine/threonine-protein kinase 2 (Homo sapiens, UniProt Q96PF2). The class given is functional.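 Note: part of the Navigating the Kinome panel, target entry STK22B.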
The target of the next assay is SRSF protein kinase 1 (Homo sapiens, UniProt Q96SB4). The class given is functional.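 Note: measured as one member of a kinome-wide kinase profiling panel.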
For assay [6], the target named is Tyrosine-protein kinase JAK3 (Homo sapiens, UniProt P52333). The class given is functional.
For assay [7], the target named is Proto-oncogene tyrosine-protein kinase ROS (Homo sapiens, UniProt P08922). The class given is functional.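 Note: ROS1 tested as one member of a kinome-wide kinase panel.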
Assay [8] concerns the target MAP/microtubule affinity-regulating kinase 3 (Homo sapiens, UniProt P27448). The class given is functional.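 Note: MARK3 affinity measured as one member of a kinome panel.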
In assay [9] the target is Proto-oncogene tyrosine-protein kinase Src (Homo sapiens, UniProt P12931). The class given is functional.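 Note: SRC entry within a kinome-wide kinase profiling panel.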
Assay [10] addresses Protein kinase C iota type (Homo sapiens, UniProt P41743). It is filed as functional.
Assay [11] has as its target Calcium/calmodulin-dependent protein kinase type 1 (Homo sapiens, UniProt Q14012). The class given is functional.
The target of assay [12] is Tyrosine-protein kinase Fyn (Homo sapiens, UniProt P06241). It is filed as functional.
Assay [13] deals with Cyclin-dependent kinase 7 (Homo sapiens, UniProt P50613). It is filed as functional.
Assay [14] deals with Inhibitor of nuclear factor kappa-B kinase subunit epsilon (Homo sapiens, UniProt Q14164). The assay is described as follows: Navigating the Kinome. Panel member name: IKBKE. The class given is functional.
Assay [15] deals with Serine/threonine-protein kinase 3 (Homo sapiens, UniProt Q13188). It is filed as functional.
The target of assay [16] is Multidrug resistance protein CDR2 (Candida albicans (strain SC5314 / ATCC MYA-2876) (Yeast), UniProt P78595). The assay can be described thus: CaCDR2 efflux pump inhibitors in yeast, dose response, S. cerevisiae AD1-8u, singleplex, Cherry Pick1 hits (AID 588604). The class given is functional.
Assay [17] deals with T1, Histone-lysine N-methyltransferase NSD2 (Homo sapiens, UniProt O96028).
T1 sequence (O96028 whole entry): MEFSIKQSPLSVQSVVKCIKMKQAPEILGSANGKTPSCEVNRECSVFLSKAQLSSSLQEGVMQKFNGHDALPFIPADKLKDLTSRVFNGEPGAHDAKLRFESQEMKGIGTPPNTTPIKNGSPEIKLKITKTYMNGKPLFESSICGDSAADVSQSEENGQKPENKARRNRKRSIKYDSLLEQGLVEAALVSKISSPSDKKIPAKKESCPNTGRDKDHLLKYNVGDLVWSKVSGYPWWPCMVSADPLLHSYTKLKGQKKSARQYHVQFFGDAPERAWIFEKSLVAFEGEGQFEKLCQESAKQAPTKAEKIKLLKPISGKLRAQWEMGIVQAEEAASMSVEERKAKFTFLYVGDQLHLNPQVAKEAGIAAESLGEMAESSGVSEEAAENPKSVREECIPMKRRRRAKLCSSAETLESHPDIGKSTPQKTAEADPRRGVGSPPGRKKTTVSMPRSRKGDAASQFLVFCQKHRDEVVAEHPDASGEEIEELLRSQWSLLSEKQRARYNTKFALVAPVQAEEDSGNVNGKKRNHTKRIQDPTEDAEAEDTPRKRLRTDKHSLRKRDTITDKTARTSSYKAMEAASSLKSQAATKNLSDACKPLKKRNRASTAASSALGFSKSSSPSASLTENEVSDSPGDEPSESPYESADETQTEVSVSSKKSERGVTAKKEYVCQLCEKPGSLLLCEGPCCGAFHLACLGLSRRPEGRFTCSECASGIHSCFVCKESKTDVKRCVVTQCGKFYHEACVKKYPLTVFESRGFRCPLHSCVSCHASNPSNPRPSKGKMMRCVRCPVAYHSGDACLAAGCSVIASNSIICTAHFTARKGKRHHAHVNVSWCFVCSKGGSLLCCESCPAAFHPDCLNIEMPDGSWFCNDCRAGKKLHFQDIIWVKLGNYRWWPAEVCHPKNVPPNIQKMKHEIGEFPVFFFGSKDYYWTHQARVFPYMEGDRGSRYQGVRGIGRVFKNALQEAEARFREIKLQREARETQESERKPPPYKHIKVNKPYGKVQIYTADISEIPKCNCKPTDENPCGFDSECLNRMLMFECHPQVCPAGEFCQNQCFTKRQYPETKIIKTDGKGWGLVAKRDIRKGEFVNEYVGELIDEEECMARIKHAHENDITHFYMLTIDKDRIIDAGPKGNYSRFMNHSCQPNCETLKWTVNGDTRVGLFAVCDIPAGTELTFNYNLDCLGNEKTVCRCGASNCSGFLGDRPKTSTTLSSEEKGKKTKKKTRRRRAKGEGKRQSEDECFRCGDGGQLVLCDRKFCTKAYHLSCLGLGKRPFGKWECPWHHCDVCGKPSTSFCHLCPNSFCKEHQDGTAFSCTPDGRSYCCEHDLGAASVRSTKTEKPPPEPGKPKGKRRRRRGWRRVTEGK
It is filed as biochemical.

Another assay has as its target ORF 73 (Human herpesvirus 8, UniProt O40947). The assay is described as follows: inhibitors of C-LANA binding to LBS DNA, dose response, biochemical, fluorescence polarization, cherry-picked samples (AID 504725).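 Note: fluorescence polarization of a labeled DNA duplex reporting LANA DNA binding; potency is for inhibitors that block LANA binding to the DNA.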 The arrangement: species or system Human gammaherpesvirus 8. On the technique in general: Polarisation of emitted light reports the rotation of a fluorescent probe.

A further assay addresses Troponin, cardiac muscle (Homo sapiens, UniProt P19429+P45379+P63316). The assay can be described thus: inhibitors of cardiac thin filament calcium sensitivity, dose response, biochemical, fluorescence, cardiac regulated thin filaments, triplicate IC50 (AID 504742). It is filed as protein-complex assay.
Assay [18] addresses T2, Ubiquitin-conjugating enzyme E2 N (Homo sapiens, UniProt P61088).
T2 sequence (P61088 whole entry): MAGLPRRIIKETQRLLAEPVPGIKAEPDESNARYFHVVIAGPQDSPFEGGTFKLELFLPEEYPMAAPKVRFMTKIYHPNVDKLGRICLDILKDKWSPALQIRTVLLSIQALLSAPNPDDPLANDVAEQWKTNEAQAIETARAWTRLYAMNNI
The class given is functional.

The term EC50 denotes the concentration giving half of the maximal effect. As a reminder, the CC50 is the concentration at which the toxic effect on the cells reaches its halfway point. In the case of `COC(=O)C1CN(C#N)N(c2ccc(Cl)cc2)C12c1ccccc1-c1ccccc12` (stereo not drawn), the EC50 in assay [1] is > 120 µM (not active); in assay [2], 4.31 µM (active); in assay [3] it was 7.38 µM (active); with BJ, 2.9 µM (active). The cytotoxic concentration (CC50) in the assay on HeLa is 3.02 µM (active).
Usually Ki stands for the dissociation constant of the complex between target and ligand, obtained from inhibition or displacement. Take `Nc1noc2cccc(-c3cccc(O)c3)c12`: the Ki in assay [4] is > 25.1 µM (inactive); in assay [5], > 1.58 µM (inactive); on SRSF protein kinase 1, 7.94 µM (active); in assay [6] it was > 1.58 µM (inactive); in [7] it was > 2 µM (inactive); in [8], > 6.31 µM (inactive). Also, the Ki in assay [9] was 1.26 µM (active); in [10], > 5.01 µM (inactive); in assay [11], > 5.01 µM (inactive); in assay [12], > 7.94 µM (inactive); in [13] it was 20 µM (active); in assay [14] it was 39.8 µM (active). For the same compound, the Ki in assay [15] was 6.31 µM (active).
Usually AC50 stands for the concentration giving half of the maximal activity seen. With `Cc1ccc2[nH]c(/C(C#N)=C/c3ccc(O)c(O)c3)nc2c1`, the EC50 in [16] is 2.17 µM (active). Also, the half-maximal activity concentration (AC50) in assay [17] is 4.37 µM (active).
The IC50 is the concentration needed to halve the response being measured. `O=C1NC(=S)S/C1=C\C=C\c1ccc([N+](=O)[O-])o1`: the concentration at half-maximal activity (AC50) at ORF 73 was 71.4 µM (active). For the same compound, the IC50 at Troponin, cardiac muscle is 40.2 µM (inactive).
In the case of `O=C(NN1C(=O)CSC1=S)C(=O)NN1C(=O)CSC1=S`, the IC50 in assay [18] was > 20 µM (inactive).
